Our source for the IC50 values is patent publication US8648066B2 (Exelixis, Inc., priority 2009, dated 2014).

Bounds are passed on as bounds.

In the assay the target is mTOR/GbL/Raptor (mTORC1) (Homo sapiens, UniProt P42345). As to the kind of experiment: mTOR/GbL/Raptor (mTORC1) ELISA assay. The following applies: phosphorylation of 4E-BP1; 0.2 nM mTORC1, 10 μM ATP; read-out: IC50 in this assay (mTORC1 ELISA). Format: biochemical. Summed up: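 Human mTORC1 (0.2 nM) phosphorylated 50 nM His-tagged 4E-BP1 with 10 µM ATP in HEPES pH 7.2 containing 10 mM MnCl2, 120 min at ambient temperature. Substrate was captured on Ni-chelate plates; phospho-4E-BP1 was detected by primary antibody and HRP secondary with luminescence.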
(In an ELISA, binding on a coated surface is turned into a signal by an enzyme label.)
By IC50 is commonly meant the point on the concentration scale where inhibition reaches its midpoint. Regarding `CCNc1nc2ccc(-c3ccc4c(c3)CN(c3cc(C)nc5cc(OC)ccc35)CCO4)cc2[nH]1` [Example 247, N-ethyl-6-{4-[2-methyl-7-(methyloxy)quinolin-4-yl]-2,3,4,5-tetrahydro-1,4-benzoxazepin-7-yl}-1H-benzimidazol-2-amine], the IC50 lay in the range of 250 to 1000 nM.

For `CC1(C)CCc2ncnc(N3CCOc4ccc(-c5cnc6sc(N)nc6c5)cc4C3)c2C1` [Example 248, 6-[4-(6,6-dimethyl-5,6,7,8-tetrahydroquinazolin-4-yl)-2,3,4,5-tetrahydro-1,4-benzoxazepin-7-yl][1,3]thiazolo[5,4-b]pyridin-2-amine], the concentration for half-maximal inhibition (IC50) was at most 10 nM. With `Cc1ncnc(N2CCOc3ccc(-c4ccc5[nH]nc(N)c5c4)cc3C2)c1Cc1ccc(F)cc1` [Example 249, 5-(4-{5-[(4-fluorophenyl)methyl]-6-methylpyrimidin-4-yl}-2,3,4,5-tetrahydro-1,4-benzoxazepin-7-yl)-1H-indazol-3-amine], the 50% inhibitory concentration (IC50) lay within 50 to 250 nM. The same measure for `CCNc1nc2ncc(-c3ccc4c(c3)CN(c3ncnc(C)c3Cc3ccc(F)cc3)CCO4)cc2[nH]1` [Example 250, N-ethyl-6-(4-{5-[(4-fluorophenyl)methyl]-6-methylpyrimidin-4-yl}-2,3,4,5-tetrahydro-1,4-benzoxazepin-7-yl)-1H-imidazo[4,5-b]pyridin-2-amine]: at most 10 nM. The same measure for `Cc1nc(N2CCOc3ccc(-c4ccc(-c5ncc[nH]5)cc4)cc3C2)c2ccccc2n1` [Example 251, 7-[4-(1H-imidazol-2-yl)phenyl]-4-(2-methylquinazolin-4-yl)-2,3,4,5-tetrahydro-1,4-benzoxazepine]: 10 to 50 nM; for `CC(O)c1nc2cc(-c3ccc4c(c3)CN(c3ncnc5c3CC(C)(C)CC5)CCO4)cnc2[nH]1` (stereo not shown) [Example 252, 1-{6-[4-(6,6-dimethyl-5,6,7,8-tetrahydroquinazolin-4-yl)-2,3,4,5-tetrahydro-1,4-benzoxazepin-7-yl]-3H-imidazo[4,5-b]pyridin-2-yl}ethanol]: at most 10 nM. With `Cc1nc2ccc(-c3ccc4c(c3)CN(c3ccnc(Nc5ccccc5)n3)CCO4)cc2[nH]1` [Example 253, 4-[7-(2-methyl-1H-benzimidazol-6-yl)-2,3-dihydro-1,4-benzoxazepin-4(5H)-yl]-N-phenylpyrimidin-2-amine] the figure was 50 to 250 nM; with `CCc1nc2ccc(-c3ccc4c(c3)CN(c3ncnc5c3CC(C)(C)CC5)CCO4)cc2[nH]1` [Example 254, 4-(6,6-dimethyl-5,6,7,8-tetrahydroquinazolin-4-yl)-7-(2-ethyl-1H-benzimidazol-6-yl)-2,3,4,5-tetrahydro-1,4-benzoxazepine], at most 10 nM; with `CCNc1nc2ccc(-c3ccc4c(c3)CN(c3ncnc5c3CC(C)(C)CC5)CCO4)cc2[nH]1` [Example 255, 6-[4-(6,6-dimethyl-5,6,7,8-tetrahydroquinazolin-4-yl)-2,3,4,5-tetrahydro-1,4-benzoxazepin-7-yl]-N-ethyl-1H-benzimidazol-2-amine], at most 10 nM. `COc1ccc2c(N3CCOc4ccc(-c5ccc(-c6ncc[nH]6)cc5)cc4C3)nc(C)nc2c1` [Example 256, 7-[4-(1H-imidazol-2-yl)phenyl]-4-[2-methyl-7-(methyloxy)quinazolin-4-yl]-2,3,4,5-tetrahydro-1,4-benzoxazepine]: the IC50 lay within 10 to 50 nM. On to `Cc1nc2ncc(-c3ccc4c(c3)CN(c3ncnc(C)c3C)CCO4)cc2[nH]1` [Example 257, 4-(5,6-dimethylpyrimidin-4-yl)-7-(2-methyl-1H-imidazo[4,5-b]pyridin-6-yl)-2,3,4,5-tetrahydro-1,4-benzoxazepine], for which the 50% inhibitory concentration (IC50) was 250 to 1000 nM. With `COc1ccc2c(N3CCOc4ccc(-c5ccc6nc(C)[nH]c6c5)cc4C3)nc(C)nc2c1` [Example 258, 7-(2-methyl-1H-benzimidazol-6-yl)-4-[2-methyl-7-(methyloxy)quinoazolin-4-yl]-2,3,4,5-tetrahydro-1,4-benzoxazepine] the figure was 250 to 1000 nM.

In the case of `CCNc1nc2ccc(-c3ccc4c(c3)CN(c3ncnc5cc(OC)c(OC)cc35)CCO4)cc2[nH]1` [Example 259, 6-{4-[6,7-bis(methyloxy)quinazolin-4-yl]-2,3,4,5-tetrahydro-1,4-benzoxazepin-7-yl}-N-ethyl-1H-benzimidazol-2-amine], the half-inhibitory concentration (IC50) was 50 to 250 nM. With `CCNc1nc2ccc(-c3ccc4c(c3)CN(c3nc(CC)nc5ccccc35)CCO4)cc2[nH]1` [Example 260, N-ethyl-6-[4-(2-ethylquinazolin-4-yl)-2,3,4,5-tetrahydro-1,4-benzoxazepin-7-yl]-1H-benzimidazol-2-amine] the figure was 50 to 250 nM; with `CCNc1nc2ccc(-c3ccc4c(c3)CN(c3ccnc5cc(OC)c(OC)cc35)CCO4)cc2[nH]1` [Example 261, 6-{4-[6,7-bis(methyloxy)quinolin-4-yl]-2,3,4,5-tetrahydro-1,4-benzoxazepin-7-yl}-N-ethyl-1H-benzimidazol-2-amine], 250 to 1000 nM.

For the molecule `CC1(C)CCc2ncnc(N3CCOc4ccc(-c5cnc6[nH]ncc6c5)cc4C3)c2C1` [Example 263, 4-(6,6-dimethyl-5,6,7,8-tetrahydroquinazolin-4-yl)-7-(1H-pyrazolo[3,4-b]pyridin-5-yl)-2,3,4,5-tetrahydro-1,4-benzoxazepine], the half-maximal inhibitory concentration (IC50) was in the range of 50 to 250 nM. In the case of `CCNc1nc2ncc(-c3ccc4c(c3)CN(c3ncnc5c3CC(C)(C)CC5)CCO4)cc2[nH]1` [Example 264, 6-[4-(6,6-dimethyl-5,6,7,8-tetrahydroquinbazolin-4-yl)-2,3,4,5-tetrahydro-1,4-benzoxazepin-7-yl]-N-ethyl-1H-imidazo[4,5-b]pyridin-2-amine], the concentration for half-maximal inhibition (IC50) was at most 10 nM.

Turning to `CC1(C)CCc2ncnc(N3CCOc4ccc(-c5ccc6[nH]c(C(F)F)nc6c5)cc4C3)c2C1` [Example 265], the IC50 is at most 10 nM. The same measure for `Cc1nc(N2CCOc3ccc(-c4ccc(N)nc4)cc3C2)c2ccccc2n1` [Example 266, 5-[4-(2-methylquinazolin-4-yl)-2,3,4,5-tetrahydro-1,4-benzoxazepin-7-yl]pyridin-2-amine]: 250 to 1000 nM; for `COc1ccc2c(N3CCOc4ccc(-c5cnc6[nH]ccc6c5)cc4C3)nc(C)nc2c1` [Example 267, 4-[2-methyl-7-(methyloxy)quinazolin-4-yl]-7-(1H-pyrrolo[2,3-b]pyridin-5-yl)-2,3,4,5-tetrahydro-1,4-benzoxazepine]: 250 to 1000 nM. Regarding `CCNc1nc2ccc(-c3ccc4c(c3)CN(c3ccnc5cc(F)ccc35)CCO4)cc2[nH]1` [Example 268, N-ethyl-6-[4-(7-fluoroquinolin-4-yl)-2,3,4,5-tetrahydro-1,4-benzoxazepin-7-yl]-1H-benzimidazol-2-amine], the half-maximal inhibitory concentration (IC50) is 50 to 250 nM. `CCNc1nc2ccc(-c3ccc4c(c3)CN(c3nc(NC)nc5ccccc35)CCO4)cc2[nH]1` [Example 269, 4-{7-[2-(ethylamino)-1H-benzimidazol-6-yl]-2,3-dihydro-1,4-benzoxazepin-4(5H)-yl}-N-methylquinazolin-2-amine]: the IC50 was 250 to 1000 nM. With `CCNc1nc(N2CCOc3ccc(-c4ccc5nc(NCC)[nH]c5c4)cc3C2)c2ccccc2n1` [Example 270, N-ethyl-4-{7-[2-(ethylamino)-1H-benzimidazol-6-yl]-2,3-dihydro-1,4-benzoxazepin-4(5H)-yl}quinazolin-2-amine] the figure was 250 to 1000 nM; with `CCNc1nc2ccc(-c3ccc4c(c3)CN(c3nc(C)nc5cc(OC)c(OC)cc35)CCO4)cc2[nH]1` [Example 271, N-ethyl-6-{4-[2-methyl-6,7-bis(methyloxy)quinazolin-4-yl]-2,3,4,5-tetrahydro-1,4-benzoxazepin-7-yl}-1H-benzimidazol-2-amine], 250 to 1000 nM.

On to `COc1cc2nccc(N3CCOc4ccc(-c5ccc(-c6ncc[nH]6)cc5)cc4C3)c2cc1OC` [Example 272, 4-[6,7-bis(methyloxy)quinolin-4-yl]-7-[4-(1H-imidazol-2-yl)phenyl]-2,3,4,5-tetrahydro-1,4-benzoxazepine], for which the half-inhibitory concentration (IC50) lay within 50 to 250 nM. The same measure for `COc1ccc2c(N3CCOc4ccc(-c5ccc(N)nc5)cc4C3)nc(C)nc2c1` [Example 273, 5-{4-[2-methyl-7-(methyloxy)quinazolin-4-yl]-2,3,4,5-tetrahydro-1,4-benzoxazepin-7-yl}pyridin-2-amine]: 250 to 1000 nM; for `COc1ccc2c(N3CCOc4ccc(-c5ccc6[nH]ncc6c5)cc4C3)nc(C)nc2c1` [Example 274, 7-(1H-indazol-5-yl)-4-[2-methyl-7-(methyloxy)quinazolin-4-yl]-2,3,4,5-tetrahydro-1,4-benzoxazepine]: at least 2000 nM. Regarding `CCNc1nc2ccc(-c3ccc4c(c3)CN(c3cc(Nc5ccccc5)ncn3)CCO4)cc2[nH]1` [Example 275, N-ethyl-6-{4-[6-(phenylamino)pyrimidin-4-yl]-2,3,4,5-tetrahydro-1,4-benzoxazepin-7-yl}-1H-benzimidazol-2-amine], the IC50 lay in the range of 50 to 250 nM. The same measure for `CCNc1nc2ccc(-c3ccc4c(c3)CN(c3cc(Nc5ccc(OC)cc5)ncn3)CCO4)cc2[nH]1` [Example 276, N-ethyl-6-[4-(6-{[4-(methyloxy)phenyl]amino}pyrimidin-4-yl)-2,3,4,5-tetrahydro-1H-benzoxazepin-7-yl]-1H-benzimidazol-2-amine]: 250 to 1000 nM; for `CCNc1nc2ccc(-c3ccc4c(c3)CN(c3ccncn3)CCO4)cc2[nH]1` [Example 277, N-ethyl-6-(4-pyrimidin-4-yl-2,3,4,5-tetrahydro-1,4-benzoxazepin-7-yl)-1H-benzimidazol-2-amine]: 1000 to 2000 nM; for `CCNc1nc2ccc(-c3ccc4c(c3)CN(c3ccnc5ccc(OC)cc35)CCO4)cc2[nH]1` [Example 278, N-ethyl-6-{4-[6-(methyloxy)quinolin-4-yl]-2,3,4,5-tetrahydro-1,4-benzoxazepin-7-yl}-1H-benzimidazol-2-amine]: 50 to 250 nM.
